Reference: patent publication US9492468B2, “Methods and compositions for treatment of acute heart failure” (PERICOR THERAPEUTICS, INC., priority 2008, dated 2016)
Counter-ions that a name gives are not always drawn.

System: dogs with advanced heart failure
Assay: Single-dose 6 hours infusion study, hemodynamic, ventriculographic, echocardiographic, MVO2 and P-V loop measures
Format: in vivo, dog
Experimental: Studies were performed in purpose-bred, healthy and conditioned mongrel dogs weighing between 20 and 30 kg. The study was approved by Henry Ford Health System Institutional Animal Care and Use Committee and conformed to the National Institute of Health “Guide and Care for Use of Laboratory Animals” and the “Position of the American Heart Association on Research Animal Use” (Position of the American Heart Association on Research Animal Use. Circulation 1985; 71; 49A-50A).
Chronic LV dysfunction and failure was produced by multiple sequential intracoronary embolizations with polystyrene Latex; coronary microembolizations were performed during cardiac catheterization under general anesthesia and sterile conditions (Sabbah H N, et al. Am J Physiol (1991) 260:H1379-84; Sabbah H N, et al. Circulation (1994) 89:2852-9; Sabbah H N, et al. Am J Cardiol 99:41 A-46A, (2007)). Anesthesia was induced using a combination of intravenous injections of oxymorphone hydrochloride (0.22 mg/kg) and diazepam (0.2-0.6 mg/kg). Plane of anesthesia was maintained throughout the study using 1% to 2% isoflurane. Left and right heart catheterizations were performed via a femoral arteriotomy and venotomy. Coronary microembolizations were discontinued when LV ejection fraction, determined angiographically, was about 25%. A period of 2 weeks was allowed after the last microembolization to ensure that infarctions produced by the last microembolizations have completely healed and heart failure was established before the study is undertaken.
Six heart failure dogs described in Example 1 were used. Studies using active drug and placebo were performed in each dog in random order a minimum of one week apart. After baseline hemodynamic, angiographic and echocardiographic measurements, GP-531 tartrate or placebo was administered as a continuous constant intravenous infusion for 6 hours. The dose of GP-531 tartrate was 10 μg/kg/min. Complete hemodynamic, angiographic and echocardiographic measurements were made during baseline, and at 1, 2, 3, 4, 5 and 6 hours after initiating drug infusion. In addition, myocardial oxygen consumption (MVO2) was measured at baseline and 4 and 6 hours after initiating drug or saline infusion. LV pressure-volume relationships (P-V Loops) were also measured at baseline and at 6 hours after initiating drug or saline infusion to assess load independent contractility and relaxation. Venous blood samples were obtained at baseline and hourly thereafter. Blood samples (at least […]) were centrifuged at 3000 rpm for 10 minutes and plasma withdrawn and placed in cryostorage tubes and stored upright at −20° C. until needed. Venous blood samples were used to evaluate plasma levels of troponin-I and plasma levels of n-terminal pro-brain natriuretic peptide (NT-proBNP).
Study Primary End-Points were: (1) change in LV ejection fraction determined from ventriculography; (2) change in LV end-systolic and end-diastolic volume determined from ventriculography; (3) change in MVO2; and (4) change in the slope of the LV end-systolic and end-diastolic P-V relationship.
All hemodynamic measurements were made during left and right heart catheterizations in anesthetized dogs at each specified study time point. Heart rate (HR), mean aortic pressure (mAoP), LV end-diastolic pressure (LVEDP), stroke volume (SV), cardiac output (CO) and systemic vascular resistance (SVR) were measured at each study time point. Left ventriculograms were performed during cardiac catheterization after completion of the hemodynamic measurements. Left ventriculograms were obtained with the dog placed on its right side and digitally recorded during the injection of 20 ml of contrast material (RENO-M-60 Squibb, Princeton, N.J.). Correction for image magnification was made using a radiopaque grid placed at the level of the LV. […]

[1] = HF dogs n=6, iv 10 μg/kg/min constant infusion, 1 h
[2] = HF dogs n=6, iv 10 μg/kg/min constant infusion, 2 h
[3] = HF dogs n=6, iv 10 μg/kg/min constant infusion, 3 h
[4] = HF dogs n=6, iv 10 μg/kg/min constant infusion, 4 h
[5] = HF dogs n=6, iv 10 μg/kg/min constant infusion, 5 h
[6] = HF dogs n=6, iv 10 μg/kg/min constant infusion, 6 h
[7] = HF dogs n=6, iv 10 μg/kg/min for 6 h
[8] = HF dogs n=6, iv 10 μg/kg/min for 6 h, time-dependent
[9] = HF dogs n=6, iv 10 μg/kg/min for 6 h, vs baseline

NC(=O)c1ncn(C2OC(CNCc3ccccc3)C(O)C2O)c1N (centres unmarked) [GP-531 tartrate]
Cardiac output (CO) [1]: 1.42 ± 0.08 L/min | Deceleration time of early mitral inflow velocity (DCT) [1]: 100 ± 5 ms | Ei/Ai (ratio of mitral inflow time-velocity integrals) [1]: 1.78 ± 0.23 | Heart rate (HR) [1]: 78 ± 1 beats/min | LV end-diastolic circumferential wall stress (EDWS) [1]: 53 ± 7 gm/cm^2 | LV end-diastolic pressure (LVEDP) [1]: 12 ± 1.1 mmHg | LV end-diastolic volume (EDV) [1]: 64 ± 2 mL | LV end-systolic volume (ESV) [1]: 46 ± 2 mL | LV fractional area of shortening (FAS) [1]: 26 ± 0.8% | Mean aortic pressure (mAoP) [1]: 77 ± 3 mmHg | PE/PA (ratio of peak mitral flow velocities) [1]: 1.7 ± 0.10 | Stroke volume (SV) [1]: 18 ± 1.0 mL | Systemic vascular resistance (SVR) [1]: 4368 ± 248 dynes-sec-cm^−5 | Cardiac output (CO) [2]: 1.47 ± 0.11 L/min | Deceleration time of early mitral inflow velocity (DCT) [2]: 109 ± 4 ms | Ei/Ai (ratio of mitral inflow time-velocity integrals) [2]: 2.03 ± 0.23 | Heart rate (HR) [2]: 78 ± 2 beats/min | LV end-diastolic circumferential wall stress (EDWS) [2]: 47 ± 5 gm/cm^2 | LV end-diastolic pressure (LVEDP) [2]: 12 ± 0.9 mmHg | LV end-diastolic volume (EDV) [2]: 63 ± 2 mL | LV end-systolic volume (ESV) [2]: 44 ± 2 mL | LV fractional area of shortening (FAS) [2]: 27 ± 1.3 % | Mean aortic pressure (mAoP) [2]: 77 ± 3 mmHg | PE/PA (ratio of peak mitral flow velocities) [2]: 1.8 ± 0.10 | Stroke volume (SV) [2]: 19 ± 1.2 mL | Systemic vascular resistance (SVR) [2]: 4250 ± 327 dynes-sec-cm^−5 | Cardiac output (CO) [3]: 1.53 ± 0.08 L/min | Deceleration time of early mitral inflow velocity (DCT) [3]: 113 ± 6 ms | Ei/Ai (ratio of mitral inflow time-velocity integrals) [3]: 2.40 ± 0.29 | Heart rate (HR) [3]: 79 ± 3 beats/min | LV end-diastolic circumferential wall stress (EDWS) [3]: 47 ± 6 gm/cm^2 | LV end-diastolic pressure (LVEDP) [3]: 12 ± 1.1 mmHg | LV end-diastolic volume (EDV) [3]: 63 ± 2 mL | LV end-systolic volume (ESV) [3]: 44 ± 2 mL | LV fractional area of shortening (FAS) [3]: 29 ± 0.9 % | Mean aortic pressure (mAoP) [3]: 79 ± 3 mmHg | PE/PA (ratio of peak mitral flow velocities) [3]: 1.9 ± 0.07 | Stroke volume (SV) [3]: 19 ± 0.8 mL | Systemic vascular resistance (SVR) [3]: 4157 ± 212 dynes-sec-cm^−5 | Cardiac output (CO) [4]: 1.63 ± 0.05 L/min | Deceleration time of early mitral inflow velocity (DCT) [4]: 113 ± 5 ms | Ei/Ai (ratio of mitral inflow time-velocity integrals) [4]: 2.51 ± 0.21 | Heart rate (HR) [4]: 80 ± 3 beats/min | LV end-diastolic circumferential wall stress (EDWS) [4]: 44 ± 7 gm/cm^2 | LV end-diastolic pressure (LVEDP) [4]: 11 ± 1.2 mmHg | LV end-diastolic volume (EDV) [4]: 63 ± 2 mL | LV end-systolic volume (ESV) [4]: 42 ± 2 mL | LV fractional area of shortening (FAS) [4]: 31 ± 1.5 % | Mean aortic pressure (mAoP) [4]: 79 ± 3 mmHg | Myocardial oxygen consumption (MVO2) [4]: 114 ± 14 μmols/min | PE/PA (ratio of peak mitral flow velocities) [4]: 2.1 ± 0.09 | Stroke volume (SV) [4]: 21 ± 0.9 mL | Systemic vascular resistance (SVR) [4]: 3895 ± 168 dynes-sec-cm^−5 | Cardiac output (CO) [5]: 1.64 ± 0.07 L/min | Deceleration time of early mitral inflow velocity (DCT) [5]: 118 ± 6 ms | Ei/Ai (ratio of mitral inflow time-velocity integrals) [5]: 2.68 ± 0.23 | Heart rate (HR) [5]: 79 ± 4 beats/min | LV end-diastolic circumferential wall stress (EDWS) [5]: 43 ± 7 gm/cm^2 | LV end-diastolic pressure (LVEDP) [5]: 11 ± 1.2 mmHg | LV end-diastolic volume (EDV) [5]: 62 ± 2 mL | LV end-systolic volume (ESV) [5]: 41 ± 2 mL | LV fractional area of shortening (FAS) [5]: 31 ± 1.4 % | Mean aortic pressure (mAoP) [5]: 77 ± 2 mmHg | PE/PA (ratio of peak mitral flow velocities) [5]: 2.2 ± 0.05 | Stroke volume (SV) [5]: 21 ± 1.1 mL | Systemic vascular resistance (SVR) [5]: 3823 ± 221 dynes-sec-cm^−5 | Cardiac output (CO) [6]: 1.69 ± 0.04 L/min | Deceleration time of early mitral inflow velocity (DCT) [6]: 118 ± 4 ms | Ei/Ai (ratio of mitral inflow time-velocity integrals) [6]: 2.77 ± 0.23 | Heart rate (HR) [6]: 81 ± 4 beats/min | LV end-diastolic circumferential wall stress (EDWS) [6]: 41 ± 7 gm/cm^2 | LV end-diastolic pressure (LVEDP) [6]: 10 ± 1.2 mmHg | LV end-diastolic volume (EDV) [6]: 62 ± 2 mL | LV end-systolic volume (ESV) [6]: 41 ± 2 mL | LV fractional area of shortening (FAS) [6]: 32 ± 1.1 % | Mean aortic pressure (mAoP) [6]: 76 ± 3 mmHg | Myocardial oxygen consumption (MVO2) [6]: 115 ± 12 μmols/min | PE/PA (ratio of peak mitral flow velocities) [6]: 2.2 ± 0.06 | Slope of end-diastolic pressure-volume relation (EDPVR) [6]: 0.296 ± 0.018 mmHg/ml | Slope of end-systolic pressure volume relation (ESPVR) [6]: 2.43 ± 0.35 mmHg/ml | Stroke volume (SV) [6]: 21 ± 0.8 mL | Systemic vascular resistance (SVR) [6]: 3571 ± 113 dynes-sec-cm^−5 | Ventricular or atrial arrhythmias [7]: did not evoke any ventricular or atrial arrhythmias | Effect on DCT [8]: increased | Effect on EDWS [8]: decreased significantly | Effect on Ei/Ai [8]: increased significantly | Effect on PE/PA [8]: increased significantly | Effect on HR [9]: no effect | Effect on mAoP [9]: no effect | Effect on EF (LVEF) (HF dogs n=6, iv 10 μg/kg/min for 6 h, vs baseline, listed as GP-531 tartrate salt): increase | Effect on slope of the EDPVR (HF dogs n=6, iv 10 μg/kg/min, 6 hours, not statistically significant): tended to decrease | LV systolic and diastolic function (HF dogs, iv 10 μg/kg/min for 6 hours): can improve both LV systolic and diastolic function

NC(=O)c1ncn(C2OC(CNCc3ccccc3)C(O)C2O)c1N [GP-531, 5-amino-1-β-D-(5-benzylamino-5-deoxy-1-β-D-ribofuranosyl)imidazole-4 carboxamide]
Time after initiating drug infusion at which improvements (EDV, ESV, EF, FAS) occurred (HF dogs n=6, iv 10 μg/kg/min): 1 to 3 h | Acute decompensation [7]: None of the dogs treated with GP-531 developed acute decompensation | Changes in MVO2 [7]: absence of any changes | Death [7]: none died | Effect on peak +dP/dt [7]: no significant effects | Effect on peak −dP/dt [7]: no significant effects | Effect on LVEDP (HF dogs n=6, iv 10 μg/kg/min for 6 h, time-dependent, significance at 5 hours): significantly decreased | Effect on CO [9]: significant increase | Effect on EDV [9]: modest but statistically significant effect on reducing | Effect on EF (LVEF) [9]: increased | Effect on ESV [9]: significantly decreased | Effect on FAS [9]: increased | Effect on SV [9]: significant increase | Effect on SVR [9]: decrease | Effect on slope of the ESPVR (HF dogs n=6, iv 10 μg/kg/min, 6 h vs baseline): significantly increased
